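Protocol summary: plate cells (96-well), add compound at 5 concentrations, incubate 48 h, interpolate endpoints linearly. At the GI50, growth is halved. At the TGI there is no net growth.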
Tests used:
Assay in all cases: NCI anticancer screen, dose series, 48 h
786-0 renal = tested on: 786-0 renal
A498 renal = tested on: A498 renal
A549 NSCLC = tested on: A549 NSCLC
ACHN renal = tested on: ACHN renal
BT-549 breast = tested on: BT-549 breast
CAKI-1 renal = tested on: CAKI-1 renal
CCRF-CEM leukemia = tested on: CCRF-CEM leukemia
COLO 205 colon = tested on: COLO 205 colon
DU-145 prostate = tested on: DU-145 prostate
EKVX NSCLC = tested on: EKVX NSCLC
HCC-2998 colon = tested on: HCC-2998 colon
HCT-116 colon = tested on: HCT-116 colon
HCT-15 colon = tested on: HCT-15 colon
HL-60(TB) leukemia = tested on: HL-60(TB) leukemia
HOP-62 NSCLC = tested on: HOP-62 NSCLC
HOP-92 NSCLC = tested on: HOP-92 NSCLC
HS 578T breast = tested on: HS 578T breast
HT29 colon = tested on: HT29 colon
IGROV1 ovarian = tested on: IGROV1 ovarian
KM12 colon = tested on: KM12 colon
LOX IMVI melanoma = tested on: LOX IMVI melanoma
M14 melanoma = tested on: M14 melanoma
MALME-3M melanoma = tested on: MALME-3M melanoma
MCF7 breast = tested on: MCF7 breast
MDA-MB-231 breast = tested on: MDA-MB-231 breast
MDA-MB-435 = tested on: MDA-MB-435
MOLT-4 leukemia = tested on: MOLT-4 leukemia
NCI-H226 lung = tested on: NCI-H226 lung
NCI-H23 lung = tested on: NCI-H23 lung
NCI-H460 lung = tested on: NCI-H460 lung
NCI-H522 lung = tested on: NCI-H522 lung
NCI/ADR-RES ovarian = tested on: NCI/ADR-RES ovarian
OVCAR-3 ovarian = tested on: OVCAR-3 ovarian
OVCAR-4 ovarian = tested on: OVCAR-4 ovarian
OVCAR-5 ovarian = tested on: OVCAR-5 ovarian
OVCAR-8 ovarian = tested on: OVCAR-8 ovarian
PC-3 prostate = tested on: PC-3 prostate
RPMI-8226 leukemia = tested on: RPMI-8226 leukemia
RXF 393 renal = tested on: RXF 393 renal
SF-268 CNS = tested on: SF-268 CNS
SF-295 CNS = tested on: SF-295 CNS
SF-539 CNS = tested on: SF-539 CNS
SK-MEL-2 melanoma = tested on: SK-MEL-2 melanoma
SK-MEL-28 melanoma = tested on: SK-MEL-28 melanoma
SK-MEL-5 melanoma = tested on: SK-MEL-5 melanoma
SK-OV-3 ovarian = tested on: SK-OV-3 ovarian
SN12C renal = tested on: SN12C renal
SNB-19 CNS = tested on: SNB-19 CNS
SNB-75 CNS = tested on: SNB-75 CNS
SW-620 colon = tested on: SW-620 colon
T-47D breast = tested on: T-47D breast
TK-10 renal = tested on: TK-10 renal
U251 CNS = tested on: U251 CNS
UACC-257 melanoma = tested on: UACC-257 melanoma
UACC-62 melanoma = tested on: UACC-62 melanoma
UO-31 renal = tested on: UO-31 renal

O=C(COc1cccc(/C=C2\CSc3ccccc3C2=O)c1)c1ccc(Cl)cc1
GI50 (786-0 renal): 1.4 µM | TGI (786-0 renal): 2.89 µM | GI50 (A498 renal): 3.95 µM | TGI (A498 renal): 8.69 µM | GI50 (A549 NSCLC): 11.8 µM | TGI (A549 NSCLC): 65.6 µM | GI50 (ACHN renal): 1.78 µM | TGI (ACHN renal): 3.5 µM | GI50 (BT-549 breast): 1.69 µM | TGI (BT-549 breast): 3.39 µM | GI50 (CAKI-1 renal): 3.97 µM | TGI (CAKI-1 renal): 10.1 µM | GI50 (CCRF-CEM leukemia): 0.325 µM | GI50 (COLO 205 colon): 2.89 µM | TGI (COLO 205 colon): 7.35 µM | GI50 (DU-145 prostate): 2.31 µM | TGI (DU-145 prostate): 5.61 µM | GI50 (EKVX NSCLC): 7.45 µM | TGI (EKVX NSCLC): 17.5 µM | GI50 (HCC-2998 colon): 1.47 µM | TGI (HCC-2998 colon): 2.8 µM | GI50 (HCT-116 colon): 0.689 µM | TGI (HCT-116 colon): 1.95 µM | GI50 (HCT-15 colon): 1.92 µM | TGI (HCT-15 colon): 5.37 µM | GI50 (HL-60(TB) leukemia): 3.57 µM | TGI (HL-60(TB) leukemia): > 21 µM | GI50 (HOP-62 NSCLC): 2.15 µM | TGI (HOP-62 NSCLC): 6.12 µM | GI50 (HOP-92 NSCLC): 3.27 µM | TGI (HOP-92 NSCLC): 44.2 µM | GI50 (HS 578T breast): 2.74 µM | TGI (HS 578T breast): 17.2 µM | GI50 (HT29 colon): 1.43 µM | TGI (HT29 colon): 2.9 µM | GI50 (IGROV1 ovarian): 2.02 µM | TGI (IGROV1 ovarian): 4.26 µM | GI50 (KM12 colon): 1.29 µM | TGI (KM12 colon): 2.75 µM | GI50 (LOX IMVI melanoma): 1.39 µM | TGI (LOX IMVI melanoma): 2.73 µM | GI50 (M14 melanoma): 1.63 µM | TGI (M14 melanoma): 3.09 µM | GI50 (MALME-3M melanoma): 2.01 µM | TGI (MALME-3M melanoma): 4.76 µM | GI50 (MCF7 breast): 0.458 µM | TGI (MCF7 breast): 1.81 µM | GI50 (MDA-MB-231 breast): 4.48 µM | TGI (MDA-MB-231 breast): 14.8 µM | GI50 (MDA-MB-435): 1.64 µM | TGI (MDA-MB-435): 3.44 µM | GI50 (MOLT-4 leukemia): 1.07 µM | TGI (MOLT-4 leukemia): 3.44 µM | GI50 (NCI-H226 lung): 4.43 µM | TGI (NCI-H226 lung): 16 µM | GI50 (NCI-H23 lung): 1.92 µM | TGI (NCI-H23 lung): 4.15 µM | GI50 (NCI-H460 lung): 2.88 µM | TGI (NCI-H460 lung): 8.38 µM | GI50 (NCI-H522 lung): 1.61 µM | TGI (NCI-H522 lung): 3.67 µM | GI50 (NCI/ADR-RES ovarian): 2.66 µM | TGI (NCI/ADR-RES ovarian): 7.33 µM | GI50 (OVCAR-3 ovarian): 1.8 µM | TGI (OVCAR-3 ovarian): 3.51 µM | GI50 (OVCAR-4 ovarian): 3.09 µM | TGI (OVCAR-4 ovarian): > 42.1 µM | GI50 (OVCAR-5 ovarian): 1.85 µM | TGI (OVCAR-5 ovarian): 4.08 µM | GI50 (OVCAR-8 ovarian): 2.53 µM | TGI (OVCAR-8 ovarian): 6.81 µM | GI50 (PC-3 prostate): 2.01 µM | TGI (PC-3 prostate): 5.25 µM | GI50 (RPMI-8226 leukemia): > 100 µM | TGI (RPMI-8226 leukemia): > 100 µM | GI50 (RXF 393 renal): 2.67 µM | TGI (RXF 393 renal): 6.73 µM | GI50 (SF-268 CNS): 2.16 µM | TGI (SF-268 CNS): 5.2 µM | GI50 (SF-295 CNS): 1.71 µM | TGI (SF-295 CNS): 3.44 µM | GI50 (SF-539 CNS): 3.05 µM | TGI (SF-539 CNS): 8.22 µM | GI50 (SK-MEL-2 melanoma): 1.76 µM | TGI (SK-MEL-2 melanoma): 3.45 µM | GI50 (SK-MEL-28 melanoma): 1.78 µM | TGI (SK-MEL-28 melanoma): 3.46 µM | GI50 (SK-MEL-5 melanoma): 1.8 µM | TGI (SK-MEL-5 melanoma): 3.41 µM | GI50 (SK-OV-3 ovarian): 8.97 µM | TGI (SK-OV-3 ovarian): 41.9 µM | GI50 (SN12C renal): 2.54 µM | TGI (SN12C renal): 8.47 µM | GI50 (SNB-19 CNS): 3.18 µM | TGI (SNB-19 CNS): 9.38 µM | GI50 (SNB-75 CNS): 5.04 µM | TGI (SNB-75 CNS): 22.4 µM | GI50 (SW-620 colon): 0.231 µM | TGI (SW-620 colon): 0.606 µM | GI50 (T-47D breast): 2.15 µM | TGI (T-47D breast): 5.43 µM | GI50 (TK-10 renal): 1.88 µM | TGI (TK-10 renal): 4.42 µM | GI50 (U251 CNS): 1.42 µM | TGI (U251 CNS): 2.72 µM | GI50 (UACC-257 melanoma): 2.68 µM | TGI (UACC-257 melanoma): 6.85 µM | GI50 (UACC-62 melanoma): 1.65 µM | TGI (UACC-62 melanoma): 3.24 µM | GI50 (UO-31 renal): 1.63 µM | TGI (UO-31 renal): 3.32 µM
